Source: PubChem BioAssay AID330 (DTP/NCI, 2004)
“And” between values parts separate entries of the source, which are not always exact repeats. Equal values may be shown once. Toxic doses and inconclusive results are not listed.

System: P388 leukemia ip, CD2F1 mice, survival T/C
Experiment: NCI In Vivo Anticancer Drug Screen. Data for tumor model P388 Leukemia (intraperitoneal) in CD2F1 (CDF1) mice
Conditions: endpoint: median survival time, higher = longer survival
Summary of the method: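 Mice carrying the transplanted tumor received test compound or vehicle. Survival was recorded in each group, and the value is the treated-group measurement divided by that of the vehicle-treated control group.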

[1] = dose: 50.0 mg/kg/injection, schedule: Q01DX009 (ip), vehicle: saline with Tween-80
[2] = dose: 100.0 mg/kg/injection, schedule: Q01DX009 (ip), vehicle: saline with Tween-80
[3] = dose: 200.0 mg/kg/injection, schedule: Q01DX009 (ip), vehicle: saline with Tween-80
[4] = dose: 50.0 mg/kg/injection, schedule: Q01DX005 (ip), vehicle: saline with Tween-80
[5] = dose: 100.0 mg/kg/injection, schedule: Q01DX005 (ip), vehicle: saline with Tween-80
[6] = dose: 25.0 mg/kg/injection, schedule: Q01DX009 (ip), vehicle: saline with Tween-80
[7] = dose: 400.0 mg/kg/injection, schedule: Q01DX009 (ip), vehicle: saline with Tween-80
[8] = dose: 50.0 mg/kg/injection, schedule: Q01DX005 (ip), vehicle: Klucel (hydroxypropylcellulose) (HPC)
[9] = dose: 100.0 mg/kg/injection, schedule: Q01DX005 (ip), vehicle: Klucel (hydroxypropylcellulose) (HPC)

## COC(=O)c1cc(=O)n(-c2ccccc2C(F)(F)F)c(SC)n1
dose: 50.0 mg/kg/injection, schedule: Q04DX003 (ip), vehicle: Klucel (hydroxypropylcellulose) (HPC)
  T/C: 95 % of control and 97 % of control
dose: 100.0 mg/kg/injection, schedule: Q04DX003 (ip), vehicle: Klucel (hydroxypropylcellulose) (HPC)
  T/C: 99 % of control and 100 % of control
dose: 200.0 mg/kg/injection, schedule: Q04DX003 (ip), vehicle: Klucel (hydroxypropylcellulose) (HPC)
  T/C: 104 % of control and 111 % of control
dose: 400.0 mg/kg/injection, schedule: Q04DX003 (ip), vehicle: Klucel (hydroxypropylcellulose) (HPC)
  T/C: 110 % of control

## CCCCCCCCCCCC[N+]1(CC)CCCCC1
dose: 0.39 mg/kg/injection, schedule: Q01DX009 (ip), vehicle: saline
  T/C: 108 % of control
dose: 0.78 mg/kg/injection, schedule: Q01DX009 (ip), vehicle: saline
  T/C: 109 % of control
dose: 1.56 mg/kg/injection, schedule: Q01DX009 (ip), vehicle: saline
  T/C: 118 % of control

## COC1(CO)OCC(O)C(O)C1O (configuration not stated)
dose: 50.0 mg/kg/injection, schedule: Q01DX005 (ip), vehicle: saline
  T/C: 91 % of control
dose: 100.0 mg/kg/injection, schedule: Q01DX005 (ip), vehicle: saline
  T/C: 93 % of control
dose: 200.0 mg/kg/injection, schedule: Q01DX005 (ip), vehicle: saline
  T/C: 101 % of control

## CSc1cccc(NC(=O)Oc2ccc(Br)cc2)c1
[1]
  T/C: 91 % of control
[2]
  T/C: 93 % of control
[3]
  T/C: 101 % of control

## C#CCOC(=O)c1ccccc1
dose: 12.5 mg/kg/injection, schedule: Q01DX005 (ip), vehicle: saline with Tween-80
  T/C: 104 % of control
dose: 25.0 mg/kg/injection, schedule: Q01DX005 (ip), vehicle: saline with Tween-80
  T/C: 89 % of control
[4]
  T/C: 104 % of control and 95 % of control

## CN(C)C1C(=O)C(C(N)=O)=C(O)C2(O)C(=O)C3=C(O)c4c(O)cccc4C(C)(O)C3CC12.[Cl][Sb]([Cl])[Cl] (configuration not stated)
[4]
  T/C: 119 % of control
[5]
  T/C: 108 % of control

## [O-]c1c(Cl)c(Cl)c(O[P+](c2ccccc2)(c2ccccc2)c2ccccc2)c(Cl)c1Cl
dose: 6.25 mg/kg/injection, schedule: Q01DX009 (ip), vehicle: saline
  T/C: 108 % of control and 96 % of control
dose: 12.5 mg/kg/injection, schedule: Q01DX009 (ip), vehicle: saline
  T/C: 113 % of control and 97 % of control
dose: 25.0 mg/kg/injection, schedule: Q01DX009 (ip), vehicle: saline
  T/C: 108 % of control and 114 % of control and 92 % of control
dose: 50.0 mg/kg/injection, schedule: Q01DX009 (ip), vehicle: saline
  T/C: 113 % of control

## CCCCCCCCCCCCCCCC[N+](C)(C)CC(=O)O
dose: 12.5 mg/kg/injection, schedule: Q01DX009 (ip), vehicle: saline with Tween-80
  T/C: 104 % of control
[6]
  T/C: 86 % of control
[1]
  T/C: 105 % of control

## NC(N)=NS(=O)(=O)c1ccc(N=c2c3ccccc3n(Cc3ccccc3)c3ccccc23)cc1
[4]
  T/C: 97 % of control
[5]
  T/C: 98 % of control

## COc1ccc2[nH]cc(C3CCCN4CCCCC34)c2c1 (configuration not stated)
[4]
  T/C: 101 % of control
[5]
  T/C: 99 % of control

## COC(=O)/C1=C/CCC2=CC(CCC1)OC2=O (configuration not stated)
dose: 35.75 mg/kg/injection, schedule: Q01DX005 (ip), vehicle: Klucel (hydroxypropylcellulose) (HPC)
  T/C: 103 % of control
dose: 71.5 mg/kg/injection, schedule: Q01DX005 (ip), vehicle: Klucel (hydroxypropylcellulose) (HPC)
  T/C: 99 % of control
dose: 143.0 mg/kg/injection, schedule: Q01DX005 (ip), vehicle: Klucel (hydroxypropylcellulose) (HPC)
  T/C: 97 % of control

## CC[C@]12CN3CCc4c([nH]c5ccccc45)[C@@](C(=O)OC)(c4cc5c(cc4OC)N(C=O)[C@H]4[C@@](O)(C(=O)OC)[C@H](OC(C)=O)[C@]6(CC)C=CCN7CC[C@]54[C@@H]76)C[C@H](C3)[C@H]1O2
dose: 1.0 mg/kg/injection, schedule: Q01DX009 (ip), vehicle: saline
  T/C: 123 % of control
dose: 4.0 mg/kg/injection, schedule: Q01DX009 (ip), vehicle: saline
  T/C: 166 % of control
dose: 6.0 mg/kg/injection, schedule: Q01DX009 (ip), vehicle: saline
  T/C: 175 % of control

## CCOC(=O)NOP(=O)(N1CC1)N1CC1
dose: 12.5 mg/kg/injection, schedule: Q01DX001 (ip), vehicle: saline + alcohol
  T/C: 109 % of control and 124 % of control
dose: 25.0 mg/kg/injection, schedule: Q01DX001 (ip), vehicle: saline + alcohol
  T/C: 111 % of control
dose: 100.0 mg/kg/injection, schedule: Q01DX001 (ip), vehicle: saline + alcohol
  T/C: 238 % of control

## COC(=O)/C=C/c1oc(=O)c(CO)c(OC)c1CO
dose: 20.0 mg/kg/injection, schedule: Q01DX009 (ip), vehicle: Klucel (hydroxypropylcellulose) (HPC)
  T/C: 119 % of control
dose: 40.0 mg/kg/injection, schedule: Q01DX009 (ip), vehicle: Klucel (hydroxypropylcellulose) (HPC)
  T/C: 119 % of control
dose: 80.0 mg/kg/injection, schedule: Q01DX009 (ip), vehicle: Klucel (hydroxypropylcellulose) (HPC)
  T/C: 111 % of control

## O=C(O)c1cc(-c2cccc3ccccc23)nc2cc3ccccc3cc12
[1]
  T/C: 106 % of control and 94 % of control
[2]
  T/C: 100 % of control
[3]
  T/C: 102 % of control
[7]
  T/C: 118 % of control

## CC(Oc1ccccc1)C(=O)O (configuration not stated)
[1]
  T/C: 98 % of control
[2]
  T/C: 97 % of control

## O=C(O)CC12CC3CC(CC(C3)C1)C2
dose: 50.0 mg/kg/injection, schedule: Q01DX009 (ip), vehicle: Klucel (hydroxypropylcellulose) (HPC)
  T/C: 102 % of control
dose: 100.0 mg/kg/injection, schedule: Q01DX009 (ip), vehicle: Klucel (hydroxypropylcellulose) (HPC)
  T/C: 103 % of control
dose: 200.0 mg/kg/injection, schedule: Q01DX009 (ip), vehicle: Klucel (hydroxypropylcellulose) (HPC)
  T/C: 102 % of control

## ClC(Cl)(Cl)Cl
dose: 0.37 % in 0.5 ml injection vol, schedule: Q01DX009 (ip), vehicle: water
  T/C: 103 % of control
dose: 0.75 % in 0.5 ml injection vol, schedule: Q01DX009 (ip), vehicle: water
  T/C: 103 % of control
dose: 1.5 % in 0.5 ml injection vol, schedule: Q01DX009 (ip), vehicle: water
  T/C: 104 % of control

## COc1cccc2c1C(=O)C=C(c1ccccc1)S2(=O)=O
[8]
  T/C: 111 % of control
[9]
  T/C: 111 % of control

## C/C(=N\O)c1ccc2c3c(ccc([N+](=O)[O-])c13)CC2
dose: 6.25 mg/kg/injection, schedule: Q01DX009 (ip), vehicle: suspension in saline
  T/C: 97 % of control
dose: 12.5 mg/kg/injection, schedule: Q01DX009 (ip), vehicle: suspension in saline
  T/C: 98 % of control
dose: 25.0 mg/kg/injection, schedule: Q01DX009 (ip), vehicle: suspension in saline
  T/C: 97 % of control
dose: 50.0 mg/kg/injection, schedule: Q01DX009 (ip), vehicle: suspension in saline
  T/C: 96 % of control

## CC(/C=C/c1ccc(Cl)cc1)=N\NC(N)=O
dose: 60.0 mg/kg/injection, schedule: Q01DX005 (ip), vehicle: saline with Tween-80
  T/C: 94 % of control
dose: 120.0 mg/kg/injection, schedule: Q01DX005 (ip), vehicle: saline with Tween-80
  T/C: 99 % of control
dose: 240.0 mg/kg/injection, schedule: Q01DX005 (ip), vehicle: saline with Tween-80
  T/C: 99 % of control

## CC(C)=NNC(=O)C1CCN1Cc1ccccc1 (configuration not stated)
dose: 50.0 mg/kg/injection, schedule: Q01DX001 (ip), vehicle: saline
  T/C: 106 % of control
dose: 100.0 mg/kg/injection, schedule: Q01DX001 (ip), vehicle: saline
  T/C: 106 % of control
dose: 200.0 mg/kg/injection, schedule: Q01DX001 (ip), vehicle: saline
  T/C: 111 % of control
dose: 400.0 mg/kg/injection, schedule: Q01DX001 (ip), vehicle: saline
  T/C: 106 % of control

## Cc1cc(C2(c3cc(C)c(O)c(CN(CC(=O)O)CC(=O)O)c3)OC(=O)c3ccccc32)cc(CN(CC(=O)O)CC(=O)O)c1O
[1]
  T/C: 100 % of control
[2]
  T/C: 100 % of control
[3]
  T/C: 97 % of control

## CSC(=S)N/N=C/c1cccn1C
[1]
  T/C: 100 % of control
[2]
  T/C: 91 % of control
[3]
  T/C: 115 % of control

## CCCOC(=O)c1nc(N(CC2CCCCC2)C(=O)NC)sc1/N=C/c1ccccc1
[6]
  T/C: 98 % of control
[1]
  T/C: 94 % of control
[2]
  T/C: 87 % of control

## CCOC(=O)n1oc2ccccc2c1=O
[8]
  T/C: 99 % of control
[9]
  T/C: 98 % of control
dose: 200.0 mg/kg/injection, schedule: Q01DX005 (ip), vehicle: Klucel (hydroxypropylcellulose) (HPC)
  T/C: 98 % of control

## CCOC1=NN(c2ccccc2)C(=O)C1
[2]
  T/C: 100 % of control
dose: 100.0 mg/kg/injection, schedule: Q04DX003 (ip), vehicle: saline with Tween-80
  T/C: 95 % of control
[3]
  T/C: 100 % of control
dose: 200.0 mg/kg/injection, schedule: Q04DX003 (ip), vehicle: saline with Tween-80
  T/C: 95 % of control
[7]
  T/C: 100 % of control
dose: 400.0 mg/kg/injection, schedule: Q04DX003 (ip), vehicle: saline with Tween-80
  T/C: 95 % of control

## CCC(/C=C/c1ccccc1)=N\NC(=O)c1ccccc1
[4]
  T/C: 96 % of control
[5]
  T/C: 96 % of control
dose: 200.0 mg/kg/injection, schedule: Q01DX005 (ip), vehicle: saline with Tween-80
  T/C: 95 % of control
